{"source": "patent US20150315241A1", "about": "“Antibiotic Peptides” (priority 2007, published 2015)", "key": {"E. coli D31": {"test_system": "E. coli D31", "type": "cell-based, Escherichia coli", "details": "D31, 20 h", "outline": "(§1)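 Read-out: A595 after 20 hrs at 37° C. Bacteria from overnight NB culture, 5×10^6 CFU/mL in 1% TSB, mixed with twofold peptide dilutions (final 125 μg/mL–60 ng/mL). Triplicate wells; water negative control.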"}, "in vitro": {"experiment": "in vitro", "type": "in vitro ADME, mouse", "details": "for half-life at 0.061 mg/mL: 25% aqueous mouse serum, 37° C., read-out: Half-life time", "protocol": "Serum stability studies were carried out in duplicate as described by Hoffmann et al.. Briefly, 28 μL of an aqueous peptide or peptidomimetics solution (0.5 mg/mL) was added to 0.2 mL freshly pooled 25% mouse serum (Sigma-Aldrich GmbH, Taufkirchen, Germany) in water. The mixtures were incubated at 37° C. under gentle stirring. The proteins were precipitated with 40 μL of 15% aqueous TCA after incubation times of 0, 0.5, 1, 2, 4 and 6 h at 0° C. for 20 min before centrifuged (13500×G) at 4° C. for 5 min. The supernatants of all samples (240 μL) were neutralized with 1 mol/L aqueous NaOH and immediately stored at −20° C. The supernatants were analyzed by RP-HPLC using a linear acetonitrile gradient as described above with 0.1% TFA as ion pair reagent. Collected fractions of the main peaks were further analyzed by tandem mass spectrometry (MALDI-TOF/TOF-MS, 4700 Proteomics Analyzer, Applied Biosystems GmbH, Weiterstadt, Germany) in positive ion reflector mode using α-cyanohydroxycinnamic acid (50% CH3CN in 0.1% aqueous TFA) as matrix to identify the degradation products of the peptides and peptidomimetics, i.e., metabolites, at the different time points. Serum control samples consisted of 200 μL of pooled 25% mouse serum in water, which were also precipitated with 40 μL 15% aqueous TCA, as described before. Peptide reference samples consisted of 28 μL of the peptide stock solution diluted in 0.2 mL water and 40 μL of 15% aqueous trichloroacetic acid (TCA)."}, "[1]": {"test_system": "S. enterica subsp. Enterica serovar. typhi G10215 ATCC 700408", "type": "cell-based, Salmonella enterica", "details": "ATCC 700408, 20 h", "outline": "as §1"}, "S. typhi S5": {"test_system": "S. typhi S5", "type": "cell-based, Salmonella typhi", "details": "S5, 20 h", "outline": "as §1"}, "[2]": {"test_system": "R. radiobatter ATCC 15955", "experiment": "Growth inhibition assay (MIC)", "type": "cell-based, Rhizobium radiobacter", "outline": "as §1"}, "B. subtilis 347": {"test_system": "B. subtilis 347", "type": "cell-based, Bactillus subtillis", "outline": "(§2)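 Peptides were serially diluted two-fold in 1% TSB, giving final concentrations from 125 μg/mL down to 60 ng/mL, and mixed with overnight bacterial culture adjusted to 5×10^6 CFU/mL in 1% TSB. After 20 hrs at 37 °C, growth was read as absorbance at 595 nm, in triplicate, with sterile water as negative control.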"}, "M. luteus ATCC 10240": {"test_system": "M. luteus ATCC 10240", "type": "cell-based, Micrococcus luteus", "outline": "as §2"}, "E. coli 1103": {"test_system": "E. coli 1103", "type": "cell-based, Escherichia coli", "outline": "as §2"}, "E. coli 10233": {"test_system": "E. coli 10233", "type": "cell-based, Escherichia coli", "outline": "as §2"}, "E. coli BL 21 AI": {"test_system": "E. coli BL 21 AI", "experiment": "Growth inhibition assay (MIC)", "type": "cell-based, Escherichia coli", "details": "1% TSB, 37° C., 20 hrs", "outline": "as §2"}, "E. coli 45849": {"test_system": "E. coli 45849", "experiment": "Growth inhibition assay (MIC)", "type": "cell-based, Escherichia coli", "outline": "as §1"}, "K. Pneumonia 123132": {"test_system": "K. Pneumonia 123132", "experiment": "Growth inhibition assay (MIC)", "type": "cell-based, Klebsiella pneumoniae", "outline": "as §1"}, "[3]": {"test_system": "K. Pneumonia K6, ATCC 700603", "experiment": "Growth inhibition assay (MIC)", "type": "cell-based, Klebsiella pneumoniae", "details": "multidrug resistant strain; 1% TSB, 37° C., 20 hrs", "outline": "as §1"}, "K. pneumonia 681": {"test_system": "K. pneumonia 681", "type": "cell-based, Klebsiella pneumoniae", "outline": "as §2"}, "[4]": {"details": "multidrug resistant strain, 1% TSB, 37° C., 20 hrs"}}, "note": "Where two headings read alike, the source gives them in different places. Where a SMILES comes first, the peptide text is derived from it. [ ]: non-standard residue; d: D form. Orn = NCCC[C@H](N)C(=O)O", "data": [{"smiles": "CC[C@H](C)[C@H](NC(=O)[C@H](Cc1ccc(O)cc1)NC(=O)[C@@H](NC(=O)[C@@H]1CCCN1C(=O)[C@H](CCCNC(=N)N)NC(=O)[C@H](CC(N)=O)NC(=O)[C@H](CC(N)=O)NC(=O)[C@@H](N)CCCN)C(C)C)C(=O)N1CCC[C@H]1C(=O)N[C@@H](CCCN)C(=O)N1CCC[C@H]1C(=O)N[C@@H](CCCNC(=N)N)C(=O)N1CCC[C@H]1C(=O)N1CCC[C@H]1C(=O)N[C@@H](Cc1c[nH]cn1)C(=O)N1CCC[C@H]1C(=O)N[C@@H](CCCNC(=N)N)C(=O)N[C@@H](CC(C)C)C(N)=O", "note": "[compound 12] (H-[Orn]NNRPVYIP[Orn]PRPPHPRL-NH2)", "values": [{"measurement": "MIC E. coli D31", "setting": "E. coli D31", "value": 4, "unit": "µg/mL"}, {"measurement": "half-life at 0.061 mg/mL", "setting": "in vitro", "value": 15, "unit": "min"}, {"measurement": "MIC S. enterica subsp. Enterica serovar. typhi G10215 ATCC 700408", "setting": "[1]", "value": "<0.25", "unit": "µg/mL"}, {"measurement": "MIC S. typhi S5", "setting": "S. typhi S5", "value": "<0.5", "unit": "µg/mL"}, {"measurement": "MIC R. radiobatter ATCC 15955", "setting": "[2]; ATCC 15955, 20 h", "value": 0.65, "unit": "µg/mL"}, {"measurement": "MIC B. subtilis 347", "setting": "B. subtilis 347; 1% TSB, 37° C., 20 hrs", "value": 62.5, "unit": "µg/mL"}, {"measurement": "MIC M. luteus ATCC 10240", "setting": "M. luteus ATCC 10240; 1% TSB, 37° C., 20 hrs", "value": 1.95, "unit": "µg/mL"}, {"measurement": "MIC E. coli 1103", "setting": "E. coli 1103; 1% TSB, 37° C., 20 hrs", "value": 3.91, "unit": "µg/mL"}, {"measurement": "MIC E. coli 10233", "setting": "E. coli 10233; 1% TSB, 37° C., 20 hrs", "value": "0.98 to 1.95", "unit": "µg/mL"}, {"measurement": "MIC E. coli BL 21 AI", "setting": "E. coli BL 21 AI", "value": 0.98, "unit": "µg/mL"}, {"measurement": "MIC E. coli 45849", "setting": "E. coli 45849; 45849, 20 h", "value": 1, "unit": "µg/mL"}, {"measurement": "MIC K. Pneumonia 123132", "setting": "K. Pneumonia 123132; 20 h", "value": 4, "unit": "µg/mL"}, {"measurement": "MIC K. Pneumonia K6, ATCC 700603", "setting": "[3]", "value": 4, "unit": "µg/mL"}, {"measurement": "MIC K. pneumonia 681", "setting": "K. pneumonia 681; 1% TSB, 37° C., 20 hrs", "value": 7.81, "unit": "µg/mL"}]}, {"smiles": "CC[C@H](C)[C@H](NC(=O)[C@H](Cc1ccc(O)cc1)NC(=O)[C@@H](NC(=O)[C@@H]1CCCN1C(=O)[C@H](CCCNC(=N)N)NC(=O)[C@H](CC(N)=O)NC(=O)[C@H](CC(N)=O)NC(=O)[C@H](CCCN)NC(C)=O)C(C)C)C(=O)N1CCC[C@H]1C(=O)N[C@@H](CCCN)C(=O)N1CCC[C@H]1C(=O)N[C@@H](CCCNC(=N)N)C(=O)N1CCC[C@H]1C(=O)N1CCC[C@H]1C(=O)N[C@@H](Cc1c[nH]cn1)C(=O)N1CCC[C@H]1C(=O)N[C@@H](CCCNC(=N)N)C(=O)N[C@@H](CC(C)C)C(N)=O", "note": "[compound 13] (Ac-[Orn]NNRPVYIP[Orn]PRPPHPRL-NH2)", "values": [{"measurement": "MIC E. coli D31", "setting": "E. coli D31", "value": 4, "unit": "µg/mL"}, {"measurement": "half-life at 0.061 mg/mL", "setting": "in vitro", "value": 15, "unit": "min"}, {"measurement": "degradation pathway in serum (N-/C-terminal)", "setting": "in vitro; 25% mouse serum, metabolites by MALDI-MS", "value": "not degraded N-terminally, but only from the C-terminal end"}, {"measurement": "MIC S. enterica subsp. Enterica serovar. typhi G10215 ATCC 700408", "setting": "[1]", "value": "<0.25", "unit": "µg/mL"}, {"measurement": "MIC S. typhi S5", "setting": "S. typhi S5", "value": "<0.5", "unit": "µg/mL"}, {"measurement": "MIC R. radiobatter ATCC 15955", "setting": "[2]; ATCC 15955, 20 h", "value": "<0.16", "unit": "µg/mL"}, {"measurement": "MIC B. subtilis 347", "setting": "B. subtilis 347; 1% TSB, 37° C., 20 hrs", "value": 125, "unit": "µg/mL"}, {"measurement": "MIC M. luteus ATCC 10240", "setting": "M. luteus ATCC 10240; 1% TSB, 37° C., 20 hrs", "value": 1.95, "unit": "µg/mL"}, {"measurement": "MIC E. coli 1103", "setting": "E. coli 1103; 1% TSB, 37° C., 20 hrs", "value": 3.81, "unit": "µg/mL"}, {"measurement": "MIC E. coli 10233", "setting": "E. coli 10233; 1% TSB, 37° C., 20 hrs", "value": 1.95, "unit": "µg/mL"}, {"measurement": "MIC E. coli BL 21 AI", "setting": "E. coli BL 21 AI", "value": 1.95, "unit": "µg/mL"}, {"measurement": "MIC E. coli 45849", "setting": "E. coli 45849; 45849, 20 h", "value": 2, "unit": "µg/mL"}, {"measurement": "MIC K. Pneumonia 123132", "setting": "K. Pneumonia 123132; 20 h", "value": 8, "unit": "µg/mL"}, {"measurement": "MIC K. Pneumonia K6, ATCC 700603", "setting": "[3]", "value": 8, "unit": "µg/mL"}, {"measurement": "MIC K. pneumonia 681", "setting": "K. pneumonia 681; 1% TSB, 37° C., 20 hrs", "value": 3.91, "unit": "µg/mL"}]}, {"smiles": "CC[C@H](C)[C@H](NC(=O)[C@@H]1CCCN1C(=O)[C@H](CCCNC(=N)N)NC(=O)[C@@H]1CCCN1C(=O)[C@H](Cc1c[nH]cn1)NC(=O)[C@@H]1CCCN1C(=O)[C@@H]1CCCN1C(=O)[C@H](CCCNC(=N)N)NC(=O)[C@@H]1CCCN1C(=O)[C@H](CCCNC(=N)N)NC(=O)[C@@H]1CCCN1C(=O)[C@@H](NC(=O)[C@H](Cc1ccc(O)cc1)NC(=O)[C@@H](NC(=O)[C@@H]1CCCN1C(=O)[C@H](CCCNC(=N)N)NC(=O)[C@H](CC(N)=O)NC(=O)[C@H](CC(N)=O)NC(=O)[C@@H](N)CCCN)C(C)C)[C@@H](C)CC)C(=O)N[C@@H](CCCNC(=N)N)C(=O)N[C@H](C(=O)O)C(C)C", "note": "[compound 23] (H-[Orn]NNRPVYIPRPRPPHPRPIRV-OH)", "values": [{"measurement": "MIC E. coli D31", "setting": "E. coli D31", "value": 64, "unit": "µg/mL"}, {"measurement": "half-life at 0.061 mg/mL", "setting": "in vitro", "value": 240, "unit": "min"}, {"measurement": "MIC S. enterica subsp. Enterica serovar. typhi G10215 ATCC 700408", "setting": "[1]", "value": 8, "unit": "µg/mL"}, {"measurement": "MIC S. typhi S5", "setting": "S. typhi S5", "value": 8, "unit": "µg/mL"}, {"measurement": "MIC R. radiobatter ATCC 15955", "setting": "[2]; [4]", "value": 0.65, "unit": "µg/mL"}, {"measurement": "MIC B. subtilis 347", "setting": "B. subtilis 347; 347, 20 h", "value": 125, "unit": "µg/mL"}, {"measurement": "MIC M. luteus ATCC 10240", "setting": "M. luteus ATCC 10240; ATCC 10240, 20 h", "value": 0.12, "unit": "µg/mL"}, {"measurement": "MIC E. coli 1103", "setting": "E. coli 1103; 1103, 20 h", "value": 7.81, "unit": "µg/mL"}, {"measurement": "MIC E. coli 10233", "setting": "E. coli 10233; 10233, 20 h", "value": 3.91, "unit": "µg/mL"}, {"measurement": "MIC E. coli BL 21 AI", "setting": "E. coli BL 21 AI", "value": "1.95 to 3.91", "unit": "µg/mL"}, {"measurement": "MIC E. coli 45849", "setting": "E. coli 45849; [4]", "value": 8, "unit": "µg/mL"}, {"measurement": "MIC K. Pneumonia 123132", "setting": "K. Pneumonia 123132; [4]", "value": 16, "unit": "µg/mL"}, {"measurement": "MIC K. Pneumonia K6, ATCC 700603", "setting": "[3]", "value": 32, "unit": "µg/mL"}, {"measurement": "MIC K. pneumonia 681", "setting": "K. pneumonia 681; 20 h", "value": 62.5, "unit": "µg/mL"}]}]}
